{
  "source": "the NIST ThermoML archive (doi:10.1021/je8008039)",
  "settings": "Crystal; visual observation",
  "note": "Numbers after ± are expanded uncertainties.",
  "data": [
    {"smiles": "COc1ccc2cc([C@H](C)C(=O)O)ccc2c1", "note": "[(S)-(+)-naproxen]", "values": [
      {"measurement": "Normal melting temperature", "value": "155 ± 1.1", "unit": "°C"}
    ]}
  ]
}
